Patent US7173021B2, “Synthesis of temozolomide esters as potent anticancer pro-drugs for topical and transdermal applications in treatments of cancers” (Tianjin North Pharm Sci-Tech Co., Ltd., priority 2004, dated 2007)
Converted amounts (≈) assume the structure as drawn.

Assays:
MCF-7 (human breast) = assay: In vitro tumour cell growth inhibition (MTT), MCF-7; type: cell-based; details: MCF7, Table 1 experiment, 96 h
Method: (§1) Temozolomide (white powder), temozolomide acid (white powder) and temozolomide-8-carboxylate hexyl (white scale crystal) were made in house. For the estimation of in vitro tumour cell growth inhibition, MV3 (human melanoma), M14 (human melanoma), B16 and B16-BL6 (mouse melanoma), SHG-44, TJ899 and TJ905 (human glioma), MCF-7 (human breast), HCT-8 (human colon), A549 (human non small lung), Bel7402 (human hepatocellulor), and BGC-823 (human stomach) were used. All tumour cells were cultured in RPMI-1640 medium supplemented with 10% fetal bovine serum (FBS) at 37° C. in a humidified 5% CO2 incubator.
(§2) After being harvested from culture flasks, a cell suspension of 1×10^4/ml was made by using 1640 RPMI medium supplemented with 10% fetal bovine serum. 100 μl (contains 1000 tumour cells) of the cell suspension was seeded per well of 96-well flat-bottom Costar culture plates at 37° C. in a humidified 5% CO2 incubator for 24 hrs before introducing drugs. Each tested compounds was made for five different concentrations and 100 μl of the each concentration was introduced into parallel three wells; control wells were added with 100 μl of plain medium alone; fluorouracil (a chemotherapeutic antitumour drug) was used as the positive control. Cells were then incubated for 96 h. Proliferative response and cell death were determined using MTT (3-(4,5-dimethylthiazolyl)-2,5-diphenyl-tetrazolium bromide) assay.
(§3) MTT assay: Following incubation of cells with the tested compounds for 96 h, 100 μl of 0.4 mg/ml MTT in RPMI 1640 was added to each well and the plate was incubated at 37° C. for 4 h. The plate was then centrifuged and followed by removal of medium. 150 μl of DMSO was then added to dissolve formazan crystal. DMSO-added plates were placed on a plate shaker for 5 min and absorbance was measured spectrophotometrically at 540 nm (with reference wavelength at 450 nm) using a Benchmark microtiter plate reader (Bio-Rad 550, Bio-Rad Laboratories, CA, U.S.A.).
(§4) The IC50 was calculated from the curve of the tested compound concentrations against the inhibition rate of the tumour cells. […]

[1] = system: A549 (human non small lung); assay: In vitro tumour cell growth inhibition (MTT), A549; type: cell-based; details: Table 1 experiment, 96 h
Method: as §1, §2, §3, §4

B16 (mouse melanoma) = assay: In vitro tumour cell growth inhibition (MTT), B16; type: cell-based; details: Mus musculus, Table 2 experiment, 96 h
Method: as §1, §2, §3
The IC50 was calculated from the curve of the tested compound concentrations against the inhibition rate of the tumour cells. Table 1 summarized the experiment results by using six human cancer cell lines, HCT-8 (colon carcinoma), A549 (non small lung carcinoma), MCF-7 (breast), Bel7402 (hepatocellulor carcinoma), BGC-823 (stomach adenocarcinoma), and MV3 (melanoma). Table 2 summarized the results from the experiment results by using two human melanoma cell lines, MV3 and M14, two mouse melanoma cell lines, B16 and B16-BL6, and three human glioma cell lines, TJ899, SHG-44 and TJ905.

[2] = Solubility in 10% v/v propylene glycol; type: physicochemical; details: 10% v/v propylene glycol aqueous solution, aqueous with cosolvent or surfactant or cyclodextrin, thermodynamic from solid, ambient conditions, stirred 5 hours, read-out: Solubility, Concentration
Method: The potential of temozolomide esters used as topical and transdermal prodrugs is first proven through studies of their solubility. That is a decreased trend of solubility in an aqueous solution with increase of the length of the ester hydrocarbon alkyl chain of the temozolomide esters. It is clear the solubility constantly decreases from the methyl ester to the octyl ester, while temozolomide itself is 3.0 mg/ml similar to that of the methyl ester. […] Similarly to the esters, the solubility of the temozolomide amide products in the aqueous solution is considerably lower than that of temozolomide.
The solubility of temozolomide and the temozolomide esters was determined in 10% v/v propylene glycol by stirring an excess of the solid products at room temperature for 5 hours. The mixtures were then filtered, diluted with sample solvent and analysed using HPLC.

[3] = In vitro permeation and metabolism, Franz diffusion cell, human skin; type: in vitro ADME
Text: Jacketed Franz-type diffusion cells were used throughout the study and the barrier (12) (skin or silicone membrane) was mounted between the two chambers (14, 16) (2.8–3.4 cm^2 available surface area) with the dermal side in contact with the receiver solution (FIG. 2). The diffusion chambers (10) comprised a barrier of skin or silicone membrane (12) mounted between two chambers (14, 16). A cap (18) formed the donor compartment (14). The second receptor compartment (16) contained a receptor cell (20) with a stirring bar (22), sampling port (24) and cover (26). The stirring bar (22) was stirred by means of a magnet plate (28) having a rotating magnet. The receptor compartment comprised a water jacket (30) having a water inlet (32) and a water outlet (34).
Three types of materials were used in permeation studies. • 1. Silicone membrane (Silastic Medical Grade, 500-5, Dow Corning 0.005 in thick) was cut into circular sections (2 cm diameter) and washed with double distilled water prior to use. • 2. Full-thickness rat skin was obtained from Male Wistar rats aged 10 to 12 weeks and weighing 250 to 300 g, which were sacrificed by cervical dislocation, the abdomen shaved and the intact skin removed by dissection. Following removal of fat tissue, the skin was cut into circular pieces and used immediately. • 3. Samples of adult human epidermis were purchased from the Stephen Kirby Skin Bank (UK). The samples were from the leg, were stored at −18° C. and used within one week. Experiments
The membrane (as detailed above) was mounted on the diffusion cell (10), on which the surface area available for diffusion of each cell was about 2.8–3.4 cm^2. The cell cap (18) was placed on the membrane (12), and it was sealed with Parafilm® connecting the cell cap, membrane, and receptor cell. […] The concentration of each sample solution was determined by using HPLC. […]
As stated above, after the removal of receptor solution, the receiver compartment was refilled with an identical volume of receptor fluid. […] As a consequence, it was necessary to mathematically correct each successive sample concentrations, in the present invention, which was determined by applying the following equation:
[formula] where Ct is the actual current concentration of drug in the receptor phase at time t, Cmt is the apparent (i.e. measured) current concentration of drug in the receptor phase, Vs is the sample volume withdrawn for analysis, Vr is the volume of receptor solution, and ΣCm is the summed total of the previous measured concentrations.
Finally, the amount of drug penetrating the skin per unit area was calculated by dividing the obtained concentrations by the surface area available for diffusion cell and this value was different for each individual cell. […]

Compound `CCCCCCOC(=O)c1ncn2c(=O)n(C)nnc12` [temozolomide hexyl ester, Hexyl 3,4-dihydro-3-methyl-4-oxoimidazo[5,1-d]-1,2,3,5-tetrazine-8-carboxylate] has an IC50 (MCF-7 (human breast)) of 20 µg/mL (≈ 71.6 µM), an IC50 [1] of 26.6 µg/mL (≈ 95.4 µM) and an IC50 (B16 (mouse melanoma)) of 28.3 µg/mL (≈ 101 µM). For the same compound, the solubility at 5 h [2] was 400 µg/mL (≈ 1430 µM), the “Permeation through human skin” value ([3]; 37° C., FIG. 9) was “notably better than temozolomide” and the “Metabolism within human skin to temozolomide acid” value ([3]; human skin) was “completely metabolized into the temozolomide acid”.
